Source: patent US20210299286A1, “TETRAZINES FOR HIGH CLICK CONJUGATION YIELD IN VIVO AND HIGH CLICK RELEASE YIELD” (Tagworks Pharmaceuticals B.V., priority 2018, published 2021)
Read-outs that look alike come from different tables or passages of the source.

Experiments:
[1] = Remark on stability of the free base; assay type: physicochemical; settings: intramolecular nucleophilic attack by the amine
[2] = In vitro tetrazine stability (decrease of UV absorbance at 520 nm); assay type: physicochemical; settings: read-out: In vitro tetrazine stability (h), t1/2 (converted)
Procedure: The stability of tetrazines was evaluated by dissolving them in 10% MeCN/PBS at 37° C. and following the decrease of the tetrazine UV absorbance at 520 nm in time (Table 4).

[3] = Second-order reaction rate constant with TCO derivative by UV spectroscopy; assay type: physicochemical; settings: 25% MeCN/PBS at 20° C.
Procedure: The second-order reaction rate constants were calculated from the rate at which the absorption at 520 nm (specific for the TZ moiety) decreased (Table 4).

AVP0458-TCO-MMAE = experiment: MMAE release from diabody ADC with D8-MMAE internal standard (LC-SIM-MS); assay type: biochemical; settings: 10 equiv of tetrazine, PBS/plasma (1/1), 37° C., after 24 h, n=3
Procedure: In an alternative method MMAE release from diabody ADC (AVP0458-TCO-MMAE) was determined by using a deuterated internal standard D8-MMAE. ADC (1.1×10^−10 moles bound MMAE) and D8-MMAE (1.1×10^−10 moles) and 10 equiv of tetrazine were incubated in 100 uL PBS/plasma (1/1) at 37° C.

CC49-TCO-Dox [4] = experiment: In vitro Dox release from CC49-TCO-Dox in 50% mouse serum; assay type: biochemical
Procedure: (§1) Doxorubicin (Dox) release from the TCO-linked ADC CC49-TCO-Dox with various TZ activators in PBS and 50% mouse serum at 37° C. was evaluated in vitro as described in Rossin et al. Bioconjug. […] The results of these experiments are depicted in Tables 3 (PBS) and 4 (mouse serum). The release reactions were performed in triplicate unless otherwise stated in the result table.

CC49-TCO-Dox [5] = experiment: In vitro Dox release from CC49-TCO-Dox in PBS; assay type: biochemical
Procedure: as §1

[6] = tested on: LS174T human colon carcinoma cells; experiment: Cell proliferation (MTT) assay of ADCs with range of tetrazines; assay type: cell-based; settings: 3-day incubation; for cell growth inhibition, combination of ADC and activator: CC49-TCO-Dox 0.1 μM or AVP0458-TCO-MMAE 1 nM plus activator 1 μM; for cell growth inhibition, activators alone: activator 1 μM alone
Procedure: Cell proliferation was assessed after a 3-day incubation by means of an MTT assay and was expressed as the % of that obtained without treatment.

In the case of `NCCCc1nnc(-c2ncccn2)nn1` [Compound 4.6], the “stability in free base form” value [1] is reported as “highly unstable”.

With `Cc1nnc(-c2cnccn2)nn1` [Compound 4.18] the half-life ([2]; 10% MeCN/PBS) was 16 h, the “reactivity (k2)” value [3] was 150 M⁻¹ s⁻¹ and the “induced MMAE release (%) from AVP0458-TCO-MMAE” value (shortened to “induced MMAE release (%)”) (AVP0458-TCO-MMAE) was 55 ± 0.8%.

In the case of `Cc1nnc(-c2nccc(C(=O)O)n2)nn1` [Compound 4.23], the half-life ([2]; 10% MeCN/PBS) is reported as 6 h, the “reactivity (k2)” value [3] is reported as 246 M⁻¹ s⁻¹ and the “induced MMAE release (%)” value (AVP0458-TCO-MMAE) is reported as 69 ± 0.5%.

In the case of `O=C(O)CN1CCN(CC(=O)O)CCN(CC(=O)NCCOCCOCCOCCOCCOCCOCCOCCOCCOCCOCCOCCNC(=O)CCCC(=O)Nc2ccc(-c3nnc(-c4ccccn4)nn3)nc2)CCN(CC(=O)O)CC1` [Compound 5.1, 2,2′,2″-(10-(2,40,44-Trioxo-44-((6-(6-(pyridine-2-yl)-1,2,4,5-tetrazin-3-yl)pyridine-3-yl)amino)-6,9,12,15,18,21,24,27,30,33,36-undecaoxa-3,39-diazatetratetracontyl)-1,4,7,10-tetraazacyclododecane-1,4,7-triyl)triacetic acid], the “In vitro Dox release (%) from CC49-Dox at 37° C. in 50% mouse serum: 1 h” value (shortened to “In vitro Dox release … in 50% mouse serum: 1 h”) (CC49-TCO-Dox [4]) is reported as 13.7 ± 0.7%, the “In vitro Dox release (%) from CC49-Dox at 37° C. in 50% mouse serum: 2 h” value (from here on “In vitro Dox release … in 50% mouse serum: 2 h”) (CC49-TCO-Dox [4]) is reported as 15.2 ± 1.4% and the “In vitro Dox release (%) from CC49-Dox at 37° C. in 50% mouse serum: 3 h” value (“In vitro Dox release … in 50% mouse serum: 3 h” for short) (CC49-TCO-Dox [4]) is reported as 14.8 ± 0.8%. The “In vitro Dox release (%) from CC49-Dox at 37° C. in PBS: 1 h” value (“In vitro Dox release (%) … in PBS: 1 h” for short) (CC49-TCO-Dox [5]) was 14.2%, the “In vitro Dox release (%) from CC49-Dox at 37° C. in PBS: 2 h” value (“In vitro Dox release (%) … in PBS: 2 h” for short) (CC49-TCO-Dox [5]) was 20.4% and the “In vitro Dox release (%) from CC49-Dox at 37° C. in PBS: 3 h” value (“In vitro Dox release (%) … in PBS: 3 h” for short) (CC49-TCO-Dox [5]) was 24.3%. The “In vitro Dox release (%) from CC49-Dox at 37° C. in PBS: 24 h” value (“In vitro Dox release (%) … 24 h” for short) (CC49-TCO-Dox [5]) was 48.1% and the “In vitro Dox release (%) from CC49-Dox at 37° C. in PBS: 48 h” value (CC49-TCO-Dox [5]) was 54.9%.

For `Cc1nnc(-c2ccccn2)nn1` [Compound 3.1, 3-(2-pyridyl)-6-methyl-1,2,4,5-tetrazine], the “In vitro Dox release … in 50% mouse serum: 1 h” value (CC49-TCO-Dox [4]) was 53.8 ± 1.7%, the “In vitro Dox release … in 50% mouse serum: 2 h” value (CC49-TCO-Dox [4]) was 57.1 ± 1.8% and the “In vitro Dox release … in 50% mouse serum: 3 h” value (CC49-TCO-Dox [4]) was 59.6 ± 2.0%. For the same compound, the “In vitro Dox release (%) … in PBS: 1 h” value (CC49-TCO-Dox [5]) was 55.1%, the “In vitro Dox release (%) … in PBS: 2 h” value (CC49-TCO-Dox [5]) was 55.9% and the “In vitro Dox release (%) … in PBS: 3 h” value (CC49-TCO-Dox [5]) was 58.9%. For the same compound, the “In vitro Dox release (%) … 24 h” value (CC49-TCO-Dox [5]) was 59.6%.

With `CN(CCc1nnc(-c2ncccn2)nn1)C(=O)c1ccc(F)cc1` [Compound 4.35, 4-fluoro-N-methyl-N-(2-(6-(pyrimidin-2-yl)-1,2,4,5-tetrazin-3-yl)ethyl)benzamide] the “cell growth inhibition, combination of ADC and activator” value (from here on “cell growth inhibition, combination”) [6] was “growth inhibition approached that achieved with the corresponding amount of free drug”, the “cell growth inhibition, activators alone” value [6] was “minimal cell growth inhibition” and the “induced MMAE release (%)” value (AVP0458-TCO-MMAE) was 67 ± 0.1%.

In the case of `O=C(O)CN1CCN(CC(=O)O)CCN(CC(=O)NCCOCCNC(=O)CCCC(=O)NCCCc2nnc(CCCNC(=O)CCCC(=O)NCCOCCNC(=O)CN3CCN(CC(=O)O)CCN(CC(=O)O)CCN(CC(=O)O)CC3)nn2)CCN(CC(=O)O)CC1` [Compound 5.3, Tz-bis-DOTA], the “In vitro Dox release … in 50% mouse serum: 1 h” value (CC49-TCO-Dox [4]) is reported as 43.6 ± 3.5%, the “In vitro Dox release … in 50% mouse serum: 2 h” value (CC49-TCO-Dox [4]) is reported as 54.9 ± 6.0% and the “In vitro Dox release … in 50% mouse serum: 3 h” value (CC49-TCO-Dox [4]) is reported as 64.4 ± 3.3%. For the same compound, the “In vitro Dox release (%) from CC49-Dox at 37° C. in 50% mouse serum: 6 h” value (CC49-TCO-Dox [4]; 6 h) was 67.5 ± 8.3%, the “In vitro Dox release (%) … in PBS: 1 h” value (CC49-TCO-Dox [5]) was 50.5% and the “In vitro Dox release (%) … in PBS: 2 h” value (CC49-TCO-Dox [5]) was 59.3%. The “In vitro Dox release (%) … in PBS: 3 h” value (CC49-TCO-Dox [5]) was 62.5%, the “In vitro Dox release (%) … 24 h” value (CC49-TCO-Dox [5]) was 80.3% and the “In vitro Dox release (%) from CC49-Dox at 37° C. in PBS: 48 h” value (CC49-TCO-Dox [5]) was 91.2%.

With `Cc1nnc(-c2nccc(CNC(=O)OC(C)(C)C)n2)nn1` [Compound 4.17] the half-life ([2]; 10% MeCN/PBS) was 12 h, the “reactivity (k2)” value [3] was 412 M⁻¹ s⁻¹ and the “induced MMAE release (%)” value (AVP0458-TCO-MMAE) was 70 ± 0.1%.

For `Cc1nnc(-c2ccncn2)nn1` [Compound 4.19], the half-life ([2]; buffer) was 1 h, the “reactivity (k2)” value [3] was 290 M⁻¹ s⁻¹ and the “induced MMAE release (%)” value (AVP0458-TCO-MMAE) was 60 ± 0.1%.

For “3-(pyridin-2-yl)-6-methyl-1,2,4,5-tetrazine functional dextran [Compound 3.2]”, the “In vitro Dox release … in 50% mouse serum: 1 h” value (CC49-TCO-Dox [4]) was 36.1 ± 0.1%, the “In vitro Dox release … in 50% mouse serum: 2 h” value (CC49-TCO-Dox [4]) was 39.8 ± 0.2% and the “In vitro Dox release … in 50% mouse serum: 3 h” value (CC49-TCO-Dox [4]) was 42.0 ± 0.4%. For the same compound, the “In vitro Dox release (%) … in PBS: 1 h” value (CC49-TCO-Dox [5]) was 44.3%, the “In vitro Dox release (%) … in PBS: 2 h” value (CC49-TCO-Dox [5]) was 44.7% and the “In vitro Dox release (%) … in PBS: 3 h” value (CC49-TCO-Dox [5]) was 47.5%. For the same compound, the “In vitro Dox release (%) … 24 h” value (CC49-TCO-Dox [5]) was 45.0%.

With `Cc1nnc(-c2ccc(NC(=O)CCCC(=O)NCCOCCOCCOCCOCCOCCOCCOCCOCCOCCOCCOCCNC(=O)CN3CCN(CC(=O)O)CCN(CC(=O)O)CCN(CC(=O)O)CC3)cn2)nn1` [Compound 3.4, 2,2′,2″-(10-(44-((6-(6-methyl-1,2,4,5-tetrazin-3-yl)pyridin-3-yl)amino)-2,40,44-trioxo-6,9,12,15,18,21,24,27,30,33,36-undecaoxa-3,39-diazatetratetracontyl)-1,4,7,10-tetraazacyclododecane-1,4,7-triyl)triacetic acid] the “cell growth inhibition, combination” value [6] was “growth inhibition approached that achieved with the corresponding amount of free drug”, the “cell growth inhibition, activators alone” value [6] was “minimal cell growth inhibition” and the “induced MMAE release (%)” value (AVP0458-TCO-MMAE) was 47 ± 0.3%.

For `NCCc1nnc(-c2nccc(CNC(=O)CCCC(=O)O)n2)nn1` [Compound 5.5], the “induced MMAE release (%)” value (AVP0458-TCO-MMAE) was 81 ± 0.4%.

`COCCOCCOCCOCCOCCOCCOCCOCCOCCOCCOCC(=O)NCCCc1nnc(-c2ncccn2)nn1` [Compound 4.24] showed a half-life ([2]; 10% MeCN/PBS) of 13 h.

In the case of `Cc1nnc(-c2nccc(CNC(=O)CCCC(=O)O)n2)nn1` [Compound 4.27], the “induced MMAE release (%)” value (AVP0458-TCO-MMAE) is reported as 66 ± 0.5%.

In the case of `Cc1nnc(-c2nccnc2C)nn1` [Compound 4.20], the half-life ([2]; 10% MeCN/PBS) is reported as 15 h, the “reactivity (k2)” value [3] is reported as 28 M⁻¹ s⁻¹ and the “induced MMAE release (%)” value (AVP0458-TCO-MMAE) is reported as 59 ± 0.3%.

In the case of `Cc1nnc(-c2nccc(CNC(=O)CN(CCN(CC(=O)O)CC(=O)O)CC(=O)O)n2)nn1` [Compound 4.26], the half-life ([2]; 10% MeCN/PBS) is reported as 13 h, the “cell growth inhibition, combination” value [6] is reported as “growth inhibition approached that achieved with the corresponding amount of free drug” and the “cell growth inhibition, activators alone” value [6] is reported as “minimal cell growth inhibition”. The “reactivity (k2)” value [3] was 135 M⁻¹ s⁻¹ and the “induced MMAE release (%)” value (AVP0458-TCO-MMAE) was 59 ± 0.6%.

In the case of `CN(CCc1nnc(-c2ncccn2)nn1)C(=O)N1CCN(C(=O)c2ccc(F)cc2)CC1` [Compound 4.33, 4-(4-fluorobenzoyl)-N-methyl-N-(2-(6-(pyrimidin-2-yl)-1,2,4,5-tetrazin-3-yl)ethyl)piperazine-1-carboxamide], the “cell growth inhibition, combination” value [6] is reported as “growth inhibition approached that achieved with the corresponding amount of free drug”, the “cell growth inhibition, activators alone” value [6] is reported as “minimal cell growth inhibition” and the “induced MMAE release (%)” value (AVP0458-TCO-MMAE) is reported as 53 ± 0.6%.

With `NCCc1nnc(-c2nccc(CNC(=O)CCCC(=O)NC(CO)(CO)CO)n2)nn1` [Compound 5.8] the “induced MMAE release (%)” value (AVP0458-TCO-MMAE) was 80 ± 0.5%.

With “3,6-dimethyl-1,2,4,5-tetrazine functional dextran [Compound 2.2]” the “In vitro Dox release … in 50% mouse serum: 1 h” value (CC49-TCO-Dox [4]) was 34.0 ± 1.2%, the “In vitro Dox release … in 50% mouse serum: 2 h” value (CC49-TCO-Dox [4]) was 43.4 ± 1.5% and the “In vitro Dox release … in 50% mouse serum: 3 h” value (CC49-TCO-Dox [4]) was 48.6 ± 1.2%. The “In vitro Dox release (%) … in PBS: 1 h” value (CC49-TCO-Dox [5]) was 44.9%, the “In vitro Dox release (%) … in PBS: 2 h” value (CC49-TCO-Dox [5]) was 51.3% and the “In vitro Dox release (%) … in PBS: 3 h” value (CC49-TCO-Dox [5]) was 54.6%. The “In vitro Dox release (%) … 24 h” value (CC49-TCO-Dox [5]) was 62.3%.
